IC50 and melting point data for 26 compounds are collected here from patent US20050014765A1, “Aryl-heteroaromatic products, compositions comprising them and use” (Aventis Pharma S.A., priority 2003, published 2005).

Data set [1] addresses T1, Tubulin purified from pig brains (Sus scrofa, UniProt P02550+P02554).
T1 construct: Tubulin is purified from pig brains according to published methods; from tissue; host or cells: pig brain
The data set can be described thus: Assessment of the inhibition of tubulin polymerization (turbidimetry at 350 nm). The conditions noted are these: concentration which inhibits the rate of polymerization by 50%; tubulin 1 mg/ml, 37° C.; read-out: Inhibition of tubulin polymerization IC 50. Format: biochemical. As for the experimental part:
Assessment of the Inhibition of Tubulin Polymerization
Tubulin is purified from pig brains according to published methods (Shelanski et al., 1973, Proc. Natl. Acad. Sci. USA, 70, 765-768. Weingarten et al., 1975, Proc. Natl. Acad. Sci. USA, 72, 1858-1862). Briefly, the brains are ground and centrifuged in an extraction buffer. The tubulin, present in the extract supernatant is subjected to two successive cycles of polymerization at 37° C. and depolymerization at 4° C., before being separated from the MAPs (Microtubule Associated Proteins) by chromatography on a phosphocellulose P11 column (Whatman). The tubulin thus isolated is more than 95% pure. It is stored in a buffer known as RB/2 30% glycerol, the composition of which is 50 mM MES-NaOH [2-(N-morpholino)ethanesulfonic acid], pH 6.8; 0.25 mM MgCl2; 0.5 mM EGTA; 30% (v/v) glycerol, 0.2 mM GTP (guanosine 5′-triphosphate).
The polymerization of the tubulin into microtubules is monitored by turbidimetry as follows: the tubulin is adjusted to a concentration of 10 μm (1 mg/ml) in the RB/2 30% glycerol buffer, to which are added 1 mM GTP and 6 mM MgCl2. The polymerization is initiated by increasing the temperature from 6° C. to 37° C. in a cuvette with a 1 cm optical pathlength, placed in a UVIKON 931 spectrophotometer (Kontron) equipped with a thermostatically-regulated cuvette holder. The increase in turbidity of the solution is monitored at 350 nm.
The products are dissolved at 10 mM in DMSO and added at variable concentrations (0.5 to 10 μm) to the tubulin solution before polymerization. The IC50 is defined as the concentration of the product which inhibits the rate of polymerization by 50%.

In a further data set the test system is HCT116 cells. The data set is described as follows: Inhibition of proliferation of the HCT116 human colon tumor line ([14C]-thymidine incorporation). The class given is cell-based. As to conditions: HCT-116, 48 hours incubation at 37° C., read-out: Inhibition of HCT116 proliferation IC 50. As for the experimental part: Test for Determining the Inhibition of Proliferation of the HCT116 Human Colon Tumor Line
The proliferation of HCT116 cells is evaluated by mesuring the incorporation of [^14C]-thymidine in the following way. The HCT166 cells (from the ATCC) are cultured in a DMEM medium (Gibco) which contains 10% of fetal calf serum and antibiotics (1% penicillin, 1% streptomycin). To perform the proliferation test, the cells are seeded into 96-well cytostar microplates (Amersham) at the rate of 5000 cells per well. The [^14C]-thymidine (0.1 μCi/well) and the products to be evaluated are subsequently added. Variable concentrations of products up to 10 μM are used; the DMSO (solvent used to dissolve the products) should not exceed 0.5% in the medium. 48 hours after incubation at 37° C., the radioactivity incorporated into the cells is measured by counting the plate in a Tri-Lux counter (Wallac). The IC50 is defined as the concentration of product which reduces the radioactivity by 50% compared with an untreated control. A product with an IC50 of less than 10 μm is regarded as cytotoxic.

Structures are written as SMILES.

T1 sequence (P02550 whole entry): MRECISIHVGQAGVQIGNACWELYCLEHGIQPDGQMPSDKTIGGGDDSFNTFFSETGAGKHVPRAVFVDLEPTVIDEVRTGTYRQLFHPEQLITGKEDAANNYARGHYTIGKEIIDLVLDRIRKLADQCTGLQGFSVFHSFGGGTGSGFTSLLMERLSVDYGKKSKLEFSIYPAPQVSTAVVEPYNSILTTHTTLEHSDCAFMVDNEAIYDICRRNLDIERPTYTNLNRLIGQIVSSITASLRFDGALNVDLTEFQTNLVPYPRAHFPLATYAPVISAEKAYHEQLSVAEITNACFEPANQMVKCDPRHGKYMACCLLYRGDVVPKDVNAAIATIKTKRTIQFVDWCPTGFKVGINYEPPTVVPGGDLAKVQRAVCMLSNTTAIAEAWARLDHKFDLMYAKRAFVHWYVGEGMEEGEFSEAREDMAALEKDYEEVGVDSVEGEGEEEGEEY
T1 sequence (P02554 whole entry): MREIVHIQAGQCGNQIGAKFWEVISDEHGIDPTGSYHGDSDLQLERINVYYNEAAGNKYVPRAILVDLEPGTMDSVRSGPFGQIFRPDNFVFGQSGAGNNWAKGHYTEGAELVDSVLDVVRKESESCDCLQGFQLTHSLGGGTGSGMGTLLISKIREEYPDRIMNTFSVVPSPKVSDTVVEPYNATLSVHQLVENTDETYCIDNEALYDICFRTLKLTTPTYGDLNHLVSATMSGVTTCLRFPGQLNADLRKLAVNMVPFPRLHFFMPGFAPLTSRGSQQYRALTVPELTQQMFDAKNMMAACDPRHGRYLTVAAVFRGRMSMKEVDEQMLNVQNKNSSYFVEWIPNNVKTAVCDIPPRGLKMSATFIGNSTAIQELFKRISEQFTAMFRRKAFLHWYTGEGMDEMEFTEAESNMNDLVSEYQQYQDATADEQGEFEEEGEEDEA

Take `COc1cc(OC)cc(N2CCN(C(=O)c3[nH]cnc3-c3ccccc3)CC2)c1` [Example 9, [4-(3,5-Dimethoxyphenyl)piperazin-1-yl](4-phenyl-1H-imidazol-5-yl)-methanone]: the melting point (as a rule, the temperature of the solid-liquid transition) stood at 196 °C. The IC50 in data set [1] is 600 nM. Besides, in the data set on HCT116 cells, the IC50 came out at 1.3 nM.
The matching figures for `O=C(c1nc(S)[nH]c1-c1ccccc1)N1CCN(c2cccc(Cl)c2)CC1` [Example 19, [4-(3-Chlorophenyl)piperazin-1-yl](2-mercapto-5-phenyl-1H-imidazol-4-yl)-methanone]: more than 260 °C, 750 nM and 28.7 nM.
In the case of `COc1cc(OC)cc(N2CCN(C(=O)c3ccn(C)c3-c3ccccc3)CC2)c1` [Example 27, [4-(3,5-Dimethoxyphenyl)piperazin-1-yl](1-methyl-2-phenyl-1H-pyrrol-3-yl)-methanone], the melting point is 130 °C. In data set [1], the IC50 came to 1900 nM. Also, the IC50 in the data set on HCT116 cells is 15.1 nM.
On the same counts, the results for `COc1cc(OC)cc(N2CCN(C(=O)c3[nH]c(O)nc3-c3ccccc3)CC2)c1` [Example 28, [4-(3,5-Dimethoxyphenyl)piperazin-1-yl](2-hydroxy-5-phenyl-1H-imidazol-4-yl)methanone] are 130 °C, 1100 nM and 1.5 nM.
`NC(=O)c1cccc(N2CCN(C(=O)c3[nH]c(C(F)(F)F)nc3-c3ccccc3)CC2)c1` [Example 54, 3-[4-(2-Trifluoromethyl-4-phenyl-1H-imidazol-5-ylcarbonyl)piperazin-1-yl]-benzamide]: the figures for the IC50 (in data set [1]; in the data set on HCT116 cells) were 1080 nM and 1890 nM, respectively.
On the same counts, the results for `CSc1nc(-c2ccccc2)c(C(=O)N2CCN(c3cccc(C(N)=O)c3)CC2)[nH]1` [Example 55, 3-[4-(2-Methylsulfanyl-4-phenyl-1H-imidazol-5-ylcarbonyl)piperazin-1-yl]-benzamide] are 1380 nM and 64 nM.
In the case of `CSc1nc(-c2ccccc2)c(C(=O)N2CCN(c3cccc(C#N)c3)CC2)[nH]1` [Example 56, 3-[4-(2-Methylsulfanyl-4-phenyl-1H-imidazol-5-ylcarbonyl)piperazin-1-yl]-benzonitrile], the IC50 came to 415 nM in data set [1] and 1.7 nM with HCT116 cells.
The matching figures for `NC(=O)c1cccc(N2CCN(C(=O)c3c[nH]cc3-c3ccccc3)CC2)c1` [Example 58, 3-[4-(4-Phenyl-1H-pyrrol-3-ylcarbonyl)piperazin-1-yl]benzamide]: 4450 nM and 334 nM.
The matching figures for `Cc1nc(-c2ccccc2)c(C(=O)N2CCN(c3cccc(C(N)=O)c3)CC2)[nH]1` [Example 59, 3-[4-(2-Methyl-5-phenyl-1H-imidazol-4-ylcarbonyl)piperazin-1-yl]benzamide]: 4660 nM and 364 nM.
The matching figures for `Cc1nc(-c2ccccc2)c(C(=O)N2CCN(c3cccc(C#N)c3)CC2)[nH]1` [Example 60, 3-[4-(2-Methyl-5-phenyl-1H-imidazol-4-ylcarbonyl)piperazin-1-yl]benzonitrile]: 990 nM and 11 nM.
On to `N#Cc1cccc(N2CCN(C(=O)c3c[nH]cc3-c3ccccc3)CC2)c1` [Example 61, 3-[4-(4-Phenyl-1H-pyrrol-3-ylcarbonyl)piperazin-1-yl]benzonitrile], for which the IC50 in data set [1] was 2320 nM; with HCT116 cells, 40 nM.
The matching figures for `COc1cc(OC)cc(N2CCN(C(=O)c3[nH]c(C(F)(F)F)nc3-c3ccccc3)CC2)c1` [Example 62, [4-(3,5-Dimethoxyphenyl)piperazin-1-yl](2-trifluoromethyl-4-phenyl-1H-imidazol-5-yl)methanone]: 570 nM and 8 nM.
`COc1cc(OC)cc(N2CCN(C(=O)c3ccn(C(C)=O)c3-c3ccccc3)CC2)c1` [Example 63, [4-(3,5-Dimethoxyphenyl)piperazin-1-yl](1-acetyl-2-phenyl-1H-pyrrol-3-yl)methanone] showed a melting point of 150 °C. Moreover, the IC50 in data set [1] was found to be 4000 nM.
With `NC(=O)c1cccc(N2CCN(C(=O)c3cn(CCO)cc3-c3ccccc3)CC2)c1` [Example 66, 3-[4-(1-Hydroxyethyl-4-phenyl-1H-pyrrol-3-ylcarbonyl)piperazin-1-yl]benzamide], the IC50 was 2430 nM in data set [1] and 2030 nM in the data set on HCT116 cells.
On the same counts, the results for `COc1cc(OC)cc(N2CCN(C(=O)c3[nH]c(S(C)(=O)=O)nc3-c3ccccc3)CC2)c1` [Example 67, [4-(3,5-Dimethoxyphenyl)piperazin-1-yl](2-methylsulfonyl-4-phenyl-1H-imidazol-5-yl)methanone] are 1650 nM and 2700 nM.
In the case of `O=C(c1[nH]cnc1-c1ccccc1)N1CCN(c2cccc(CO)c2)CC1` [Example 68, [4-(3-Hydroxymethylphenyl)piperazin-1-yl](4-phenyl-1H-imidazol-5-yl)methanone], the IC50 in data set [1] is 480 nM; in the data set on HCT116 cells, 13 nM.
The matching figures for `Cn1cc(C(=O)N2CCN(c3cccc(CO)c3)CC2)c(-c2ccccc2)c1` [Example 69]: 710 nM and 45 nM.
Take `CS(=O)(=O)c1nc(-c2ccccc2)c(C(=O)N2CCN(c3cccc(C#N)c3)CC2)[nH]1` [Example 70, 3-[4-(2-Methylsulfonyl-4-phenyl-1H-imidazol-4-ylcarbonyl)piperazin-1-yl]benzonitrile]: the melting point came out at 198 °C. Moreover, the IC50 in data set [1] came out at 3750 nM.
On to `N#Cc1cccc(N2CCN(C(=O)c3cn(CO)cc3-c3ccccc3)CC2)c1` [Example 72, 3-[4-(1-Hydroxymethyl-4-phenyl-1H-pyrrol-3-ylcarbonyl)piperazin-1-yl]benzonitrile], for which the IC50 in data set [1] was determined as 580 nM; with HCT116 cells it was 29.5 nM.
The matching figures for `NC(=O)c1cccc(N2CCN(C(=O)c3c(-c4ccccc4)ccn3CC(=O)O)CC2)c1` [Example 73, {2-[4-(3-Carbamoylphenyl)piperazin-1-ylcarbonyl]-3-phenylpyrrol-1-yl}acetic acid]: 18400 nM and 2700 nM.
On the same counts, the results for `Cc1nc(-c2ccccc2)c(C(=O)N2CCN(c3cccc(CO)c3)CC2)[nH]1` [Example 76, [4-(3-Hydroxymethylphenyl)piperazin-1-yl](2-methyl-4-phenyl-1H-imidazol-5-yl)methanone] are 970 nM and 101 nM.
On the same counts, the results for `O=C(c1[nH]c(S)nc1-c1ccccc1)N1CCN(c2cccc(CO)c2)CC1` [Example 78, [4-(3-Hydroxymethylphenyl)piperazin-1-yl](2-mercapto-4-phenyl-1H-imidazol-5-yl)methanone] are 725 nM and 244 nM.
With `CSc1nc(-c2ccccc2)c(C(=O)N2CCN(c3cccc(CO)c3)CC2)[nH]1` [Example 79, [4-(3-Hydroxymethylphenyl)piperazin-1-yl](2-methylsulfanyl-4-phenyl-1H-imidazol-5-yl)methanone], the IC50 in data set [1] was determined as 493 nM; in the data set with HCT116 cells, 11.7 nM.
With `N#Cc1cccc(N2CCN(C(=O)c3sc(N)nc3-c3ccccc3)CC2)c1` [Example 82, 3-[4-(2-Amino-4-phenylthiazol-5-ylcarbonyl)piperazin-1-yl]benzonitrile], the melting point was 246 °C. Further, the IC50 in data set [1] was 294 nM.
On the same counts, the results for `NC(=O)c1cccc(N2CCN(C(=O)c3sc(N)nc3-c3ccccc3)CC2)c1` [Example 85, 3-[4-(2-Amino-4-phenyl-thiazol-5-ylcarbonyl)piperazin-1-yl]benzamide] are 236 °C and 685 nM.
`Nc1nc(-c2ccccc2)c(C(=O)N2CCN(c3cccc(CO)c3)CC2)s1` [Example 88, [4-(3-Hydroxymethylphenyl)piperazin-1-yl](2-amino-4-phenylthiazol-5-yl)-methanone]: the melting point was found to be 176 °C. Moreover, the IC50 in data set [1] worked out at 715 nM.
